The values that follow come from patent publication US9428514B2, “Bromodomain inhibitors” (AbbVie Inc., priority 2013, dated 2016).

Bounds are passed on as bounds.

This test concerns breast cancer cell line MX-1. Put plainly: MX-1 cell line proliferation assay (3-day, Cell Titer Glo). The test is classed as cell-based. The conditions noted are these: Homo sapiens, MX1, MX-1 cells, 72 hours, read-out: Cellular proliferation: EC50. As for the experimental part:
The impact of compounds of the Examples on cancer cell proliferation was determined using the breast cancer cell line MX-1 (ATCC) in a 3-day proliferation assay. MX-1 cells were maintained in RPMI supplemented with 10% FBS at 37° C. and an atmosphere of 5% CO2. For compound testing, MX-1 cells were plated in 96-well black bottom plates at a density of 5000 cells/well in 90 μL of culture media and incubated at 37° overnight to allow cell adhesion and spreading. Compound dilution series were prepared in DMSO via a 3-fold serial dilution from 3 mM to […]. The DMSO dilution series were then diluted 1:100 in phosphate buffered saline, and 10 μL of the resulted solution were added to the appropriate wells of the MX-1 cell plate. The final compound concentrations in the wells were 3, 1, 0.3, 0.1, 0.03, 0.01, 0.003, 0.001, 0.0003, 0.0001, and 0.00003 μM.
Luminescence readings from the Cell Titer Glo assay were normalized to the DMSO treated cells and analyzed using the GraphPad Prism software with sigmoidal curve fitting to obtain EC50s. The minimum significant ratio (MSR) was determined to evaluate assay reproducibility (Eastwood et al., (2006) J Biomol Screen, 11: 253-261). The overall MSR was determined to be 2.1 and a moving MSR (last six run MSR overtime) has been <2. The EC50 values are reported in Table 1 for the indicated compounds.
Take `CCOc1cc(=O)n(C)cc1-c1cc(N(Cc2cn(C)cn2)S(=O)(=O)CC)ccc1Oc1ccc(F)cc1F` [Example 100, N-[4-(2,4-difluorophenoxy)-3-(4-ethoxy-1-methyl-6-oxo-1,6-dihydropyridin-3-yl)phenyl]-N-[(1-methyl-1H-imidazol-4-yl)methyl]ethanesulfonamide]: the EC50 was above 1000 nM.

Take `CCOc1cc(=O)n(C)cc1-c1cc(NCc2cncn2C)ccc1Oc1ccc(F)cc1F` [Example 24, 5-[2-(2,4-difluorophenoxy)-5-{[(1-methyl-1H-imidazol-5-yl)methyl]amino}phenyl]-4-ethoxy-1-methylpyridin-2(1H)-one]: the EC50 was 832 nM.

Turning to `CCOc1cc(=O)n(C)cc1-c1cc(NC(=O)Cc2cccc(Oc3ccccc3)c2)ccc1Oc1ccc(F)cc1F` [Example 28, N-[4-(2,4-difluorophenoxy)-3-(4-ethoxy-1-methyl-6-oxo-1,6-dihydropyridin-3-yl)phenyl]-2-(3-phenoxyphenyl)acetamide], the EC50 was found to be 605 nM.

For `CCOc1cc(=O)n(C)cc1-c1cc(NC(=O)Cc2cc(C)n(C)n2)ccc1Oc1ccc(F)cc1F` [Example 6, N-[4-(2,4-difluorophenoxy)-3-(4-ethoxy-1-methyl-6-oxo-1,6-dihydropyridin-3-yl)phenyl]-2-(1,5-dimethyl-1H-pyrazol-3-yl)acetamide], the EC50 worked out at 356 nM. As for `CCOc1cc(=O)n(C)cc1-c1cc(NC(=O)Cc2ccc3c(c2)CCCO3)ccc1Oc1ccc(F)cc1F` [Example 2, N-[4-(2,4-difluorophenoxy)-3-(4-ethoxy-1-methyl-6-oxo-1,6-dihydropyridin-3-yl)phenyl]-2-(3,4-dihydro-2H-chromen-6-yl)acetamide], the EC50 turned out to be 279 nM. As for `CCOc1cc(=O)n(C)cc1-c1cc(N(CC2CCOCC2)S(=O)(=O)CC)ccc1Oc1ccc(F)cc1F` [Example 103, N-[4-(2,4-difluorophenoxy)-3-(4-ethoxy-1-methyl-6-oxo-1,6-dihydropyridin-3-yl)phenyl]-N-(tetrahydro-2H-pyran-4-ylmethyl)ethanesulfonamide], the EC50 was determined as 677 nM. Turning to `CCOc1cc(=O)n(C)cc1-c1cc(NCc2cn3c(n2)CCC3)ccc1Oc1ccc(F)cc1F` [Example 10, 5-{2-(2,4-difluorophenoxy)-5-[(6,7-dihydro-5H-pyrrolo[1,2-a]imidazol-2-ylmethyl)amino]phenyl}-4-ethoxy-1-methylpyridin-2(1H)-one], the EC50 is 1890 nM. Take `CCOc1cc(=O)n(C)cc1-c1cc(NC(=O)CCS(=O)(=O)c2ccccc2)ccc1Oc1ccc(F)cc1F` [Example 27, N-[4-(2,4-difluorophenoxy)-3-(4-ethoxy-1-methyl-6-oxo-1,6-dihydropyridin-3-yl)phenyl]-3-(phenylsulfonyl)propanamide]: the EC50 came out at 730 nM. Regarding `CCOc1cc(=O)n(C)cc1-c1cc(NCc2ccc(F)cc2)ccc1Oc1ccc(F)cc1F` [Example 64, 5-{2-(2,4-difluorophenoxy)-5-[(4-fluorobenzyl)amino]phenyl}-4-ethoxy-1-methylpyridin-2(1H)-one], the EC50 was determined as 508 nM.

Regarding `CCOc1cc(=O)n(C)cc1-c1cc(NCc2ncccc2C)ccc1Oc1ccc(F)cc1F` [Example 12, 5-[2-(2,4-difluorophenoxy)-5-{[(3-methylpyridin-2-yl)methyl]amino}phenyl]-4-ethoxy-1-methylpyridin-2(1H)-one], the EC50 came to 1020 nM. For `CCOc1cc(=O)n(C)cc1-c1cc(NC(=O)COCc2ccccc2)ccc1Oc1ccc(F)cc1F` [Example 35, 2-(benzyloxy)-N-[4-(2,4-difluorophenoxy)-3-(4-ethoxy-1-methyl-6-oxo-1,6-dihydropyridin-3-yl)phenyl]acetamide], the EC50 is 375 nM. In the case of `CCOc1cc(=O)n(C)cc1-c1cc(N(CC2CC2)S(=O)(=O)Cc2ccccc2)ccc1Oc1ccc(F)cc1F` [Example 76, N-(cyclopropylmethyl)-N-[4-(2,4-difluorophenoxy)-3-(4-ethoxy-1-methyl-6-oxo-1,6-dihydropyridin-3-yl)phenyl]-1-phenylmethanesulfonamide] it was above 1000 nM; in that of `CCOc1cc(=O)n(C)cc1-c1cc(NC(=O)Cc2cnc(C)s2)ccc1Oc1ccc(F)cc1F` [Example 7, N-[4-(2,4-difluorophenoxy)-3-(4-ethoxy-1-methyl-6-oxo-1,6-dihydropyridin-3-yl)phenyl]-2-(2-methyl-1,3-thiazol-5-yl)acetamide], 187 nM; in that of `CCOc1cc(=O)n(C)cc1-c1cc(NC(=O)Cn2ccc(-c3ccccc3)n2)ccc1Oc1ccc(F)cc1F` [Example 81, N-[4-(2,4-difluorophenoxy)-3-(4-ethoxy-1-methyl-6-oxo-1,6-dihydropyridin-3-yl)phenyl]-2-(3-phenyl-1H-pyrazol-1-yl)acetamide], above 1000 nM. As for `CCOc1cc(=O)n(C)cc1-c1cc(NC(=O)Cc2ccc(S(C)(=O)=O)cc2)ccc1Oc1ccc(F)cc1F` [Example 29, N-[4-(2,4-difluorophenoxy)-3-(4-ethoxy-1-methyl-6-oxo-1,6-dihydropyridin-3-yl)phenyl]-2-[4-(methylsulfonyl)phenyl]acetamide], the EC50 is 433 nM. Under `CCOc1cc(=O)n(C)cc1-c1cc(N(CC2CC2)S(=O)(=O)Cc2cc(F)ccc2Cl)ccc1Oc1ccc(F)cc1F` [Example 66, 1-(2-chloro-5-fluorophenyl)-N-(cyclopropylmethyl)-N-[4-(2,4-difluorophenoxy)-3-(4-ethoxy-1-methyl-6-oxo-1,6-dihydropyridin-3-yl)phenyl]methanesulfonamide] stands above 1000 nM; under `CCOc1cc(=O)n(C)cc1-c1cc(NCc2cnco2)ccc1Oc1ccc(F)cc1F` [Example 23, 5-{2-(2,4-difluorophenoxy)-5-[(1,3-oxazol-5-ylmethyl)amino]phenyl}-4-ethoxy-1-methylpyridin-2(1H)-one], above 3000 nM; under `CCOc1cc(=O)n(C)cc1-c1cc(N(CC2CC2)C(=O)Cc2cc(F)ccc2Cl)ccc1Oc1ccc(F)cc1F` [Example 67, 2-(2-chloro-5-fluorophenyl)-N-(cyclopropylmethyl)-N-[4-(2,4-difluorophenoxy)-3-(4-ethoxy-1-methyl-6-oxo-1,6-dihydropyridin-3-yl)phenyl]acetamide], above 1000 nM. For `CCOc1cc(=O)n(C)cc1-c1cc(NC(=O)Cc2ccc(OCc3ccccc3)cc2)ccc1Oc1ccc(F)cc1F` [Example 45, 2-[4-(benzyloxy)phenyl]-N-[4-(2,4-difluorophenoxy)-3-(4-ethoxy-1-methyl-6-oxo-1,6-dihydropyridin-3-yl)phenyl]acetamide], the EC50 amounted to 981 nM. Under `CCOc1cc(=O)n(C)cc1-c1cc(N(Cc2cnn(C)c2)S(=O)(=O)Cc2ccccc2)ccc1Oc1ccc(F)cc1F` [Example 98, N-[4-(2,4-difluorophenoxy)-3-(4-ethoxy-1-methyl-6-oxo-1,6-dihydropyridin-3-yl)phenyl]-N-[(1-methyl-1H-pyrazol-4-yl)methyl]-1-phenylmethanesulfonamide] stands above 1000 nM; under `CCOc1cc(=O)n(C)cc1-c1cc(NC(=O)Cc2ccc3ccccc3c2)ccc1Oc1ccc(F)cc1F` [Example 39, N-[4-(2,4-difluorophenoxy)-3-(4-ethoxy-1-methyl-6-oxo-1,6-dihydropyridin-3-yl)phenyl]-2-(naphthalen-2-yl)acetamide], 595 nM. `CCOc1cc(=O)n(C)cc1-c1cc(N(Cc2ccccc2)S(=O)(=O)Cc2ccccc2)ccc1Oc1ccc(F)cc1F` [Example 77, N-benzyl-N-[4-(2,4-difluorophenoxy)-3-(4-ethoxy-1-methyl-6-oxo-1,6-dihydropyridin-3-yl)phenyl]-1-phenylmethanesulfonamide]: the EC50 was above 1000 nM. With `CCOc1cc(=O)n(C)cc1-c1cc(NC(=O)Cc2csc(C)n2)ccc1Oc1ccc(F)cc1F` [Example 83, N-[4-(2,4-difluorophenoxy)-3-(4-ethoxy-1-methyl-6-oxo-1,6-dihydropyridin-3-yl)phenyl]-2-(2-methyl-1,3-thiazol-4-yl)acetamide], the EC50 turned out to be 304 nM. In the case of `CCOc1cc(=O)n(C)cc1-c1cc(NCCCn2cccn2)ccc1Oc1ccc(F)cc1F` [Example 9, 5-[2-(2,4-difluorophenoxy)-5-{[3-(1H-pyrazol-1-yl)propyl]amino}phenyl]-4-ethoxy-1-methylpyridin-2(1H)-one], the EC50 was found to be 746 nM. On to `CCOc1cc(=O)n(C)cc1-c1cc(N(Cc2ccccc2Cl)S(=O)(=O)Cc2ccccc2)ccc1Oc1ccc(F)cc1F` [Example 78, N-(2-chlorobenzyl)-N-[4-(2,4-difluorophenoxy)-3-(4-ethoxy-1-methyl-6-oxo-1,6-dihydropyridin-3-yl)phenyl]-1-phenylmethanesulfonamide], for which the EC50 was above 1000 nM.

Regarding `CCOc1cc(=O)n(C)cc1-c1cc(NC(=O)Cc2cnn(C)c2)ccc1Oc1ccc(F)cc1F` [Example 4, N-[4-(2,4-difluorophenoxy)-3-(4-ethoxy-1-methyl-6-oxo-1,6-dihydropyridin-3-yl)phenyl]-2-(1-methyl-1H-pyrazol-4-yl)acetamide], the EC50 was 425 nM. `CCOc1cc(=O)n(C)cc1-c1cc(N(Cc2cccnc2)S(=O)(=O)Cc2ccccc2)ccc1Oc1ccc(F)cc1F` [Example 92, N-[4-(2,4-difluorophenoxy)-3-(4-ethoxy-1-methyl-6-oxo-1,6-dihydropyridin-3-yl)phenyl]-1-phenyl-N-(pyridin-3-ylmethyl)methanesulfonamide]: the EC50 was above 1000 nM.
